Among the data in article doi:10.1101/2020.03.04.976639v2 (biorxiv, 2020) are Ki and Km values, retold here.

For experiment [1], the target named is T1, PaThiL (P. aeruginosa thiamine monophosphate kinase, ThiL) (Pseudomonas aeruginosa, UniProt Q9HWX7).
T1 sequence (Q9HWX7 1-322): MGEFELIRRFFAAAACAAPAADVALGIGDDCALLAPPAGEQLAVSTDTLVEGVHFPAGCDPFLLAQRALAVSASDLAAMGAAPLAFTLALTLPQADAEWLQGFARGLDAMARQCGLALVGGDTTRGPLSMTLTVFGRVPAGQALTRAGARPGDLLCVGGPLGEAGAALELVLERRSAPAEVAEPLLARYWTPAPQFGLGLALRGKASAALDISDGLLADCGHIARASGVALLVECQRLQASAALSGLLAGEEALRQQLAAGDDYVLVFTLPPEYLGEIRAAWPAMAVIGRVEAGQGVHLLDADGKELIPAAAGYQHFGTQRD
As to the kind of experiment: luminescent kinase assay. Format: biochemical.

The target of experiment [2] is T1, PaThiL (P. aeruginosa thiamine monophosphate kinase, ThiL). Put plainly: luminescent kinase assay. Format: biochemical. The following applies: random Bi-Bi fit; TMP 0.78-50 µM; 50 mM Tris-HCl pH 8.0, 5 mM MgCl2, 350 mM KCl.

What is called Ki is a dissociation constant, usually derived from enzyme kinetics or from competition with a known ligand. A low value points to tighter binding. The Km is the concentration of substrate that gives half-maximal velocity.

The compound `O=C(O)Cc1c[nH]c2ccc(O)cc12` [5-hydroxyindolacetic acid] came in with a Ki in experiment [1] of 114 ± 27 µM.

On to `Nc1ncnc2c1ncn2[C@@H]1O[C@H](COP(=O)(O)OP(=O)(O)OP(=O)(O)O)[C@@H](O)[C@H]1O` [ATP], for which the Km in experiment [2] was 111 ± 8 µM.
